# Legend:
# [1] = system: rats with focal cerebral ischemia-reperfusion injury; experiment: rat focal cerebral ischemia-reperfusion model (internal carotid artery suture method), area of cerebral infarction by TTC staining; format: in vivo, Sprague-Dawley (SD) rats; conditions: for Area of cerebral infarction (%): single i.v. dose after reperfusion, 24 h after ischemia, (+)-2-borneol 1 mg/kg; for area of cerebral infarction of MCAO rats (in words) / neurological deficits of MCAO rats (in words): summary, tail vein, cilostazol 1-18 mg/kg, (+)-2-borneol 0.27-5 mg/kg
# Procedure: After the cerebral ischemia model was established, the animals were assigned to each group in a single-blind manner with equal probability. After reperfusion, the animals were immediately administered intravenously with the drugs once. The animals in the model group were administered with an equal volume of normal saline. The animals were sacrificed 24 hours after cerebral ischemia, and their brains were taken out, stained, and photographed for determining the area of cerebral infarction. The rat focal cerebral ischemia-reperfusion model was established by internal carotid artery suture method. The limbs (hind limbs above the knee joint and forelimbs below the wrist joint) and head of an anesthetized rat were tightened with rubber bands. The animal was fixed on an operating table in supine position, and was shaved with an animal shaver from the head to the chest, and the skin was disinfected with alcohol. The neck of the rat was cut at the midline, and the subcutaneous tissue was bluntly separated. The thin layer of fascia on the surface of the anterior triangle of the neck was separated, the lower side-lower edge of the clavicular hyoid muscle was pulled up, and the longitudinally pulsating artery parallel to this muscle can be seen. The arterial shell was opened, and the bifurcation of the right carotid artery was exposed. The right common carotid artery, external carotid artery and internal carotid artery were separated. The vagus nerve was gently stripped, and the external carotid artery was ligated and cut. The proximal end of the common carotid artery was clamped. An incision was made at the distal end from the ligature of the external carotid artery, and was inserted with a suture line, which was passed through the bifurcation of the common carotid artery into the internal carotid artery, and then was inserted slowly until reaching slight resistance (approximately 20 mm from the bifurcation), so as to block all blood supply to the middle cerebral artery. The suture line was slightly fixed below the incision of the external carotid artery with silk thread. The silk thread clamping the proximal end of the common carotid artery was loosened. A gauze soaked in sterile saline was covered on the wound, and the rat was placed on a heat preservation pad to keep warm. 2.0 h after cerebral ischemia on the right side, the suture line was pulled out gently to restore the blood supply for reperfusion. The external carotid artery was ligated with silk thread fixing the suture line. The skin was stitched, and disinfected. The rats were placed in clean feed, and their general condition and respiration were observed until they woke up from anesthesia. The rats were provided with food and water, and commonly reared. The animals were subjected to evaluation of neurological deficit symptoms and then sacrificed with CO2. The brain was taken out by cutting off head. The olfactory bulb, cerebellum and lower brainstem were removed. The blood on the surface of the brain was washed with normal saline, and the residual water on the surface was removed. The brain was placed at -20° C. for 20 min, then taken out, immediately cut to a coronal section vertically downward at the crossing plane of the line of sight, and sliced backward every 2 mm. The brain slices were incubated in 1% TTC staining solution (at 37° C. for 30 min). The normal brain tissue was stained into dark red, and the ischemic brain tissue was stained into pale white. After being washed with normal saline, the brain slices were quickly arranged in a row from front to back, removed off the residual water on the surface, and photographed. Calculation of area of cerebral infarction: The photos were processed by Image J software, and the corresponding area of left brain and non-infarction area of right brain were calculated according to the formula, so that the percentage of the area of infarction was calculated. […]
# [2] = system: mice with focal cerebral ischemia-reperfusion injury; experiment: mouse focal cerebral ischemia-reperfusion model (internal carotid artery suture method), area of cerebral infarction by TTC staining; format: in vivo, C57BL/6J mice; conditions: summary; intravenous; cilostazol 10-19.46 mg/kg, (+)-2-borneol 0.54-10 mg/kg
# Procedure: The animals were subjected to evaluation of neurological deficit symptoms and then sacrificed with CO2. The brain was taken out by cutting off head. The olfactory bulb, cerebellum and lower brainstem were removed. The blood on the surface of the brain was washed with normal saline, and the residual water on the surface was removed. The brain was placed at −20° C. for 20 min, then taken out, immediately cut to a coronal section vertically downward at the crossing plane of the line of sight, and sliced backward every 2 mm. The brain slices were incubated in 1% TTC staining solution (at 37° C. for 30 min). The normal brain tissue was stained into dark red, and the ischemic brain tissue was stained into pale white. After being washed with normal saline, the brain slices were quickly arranged in a row from front to back, removed off the residual water on the surface, and photographed. Calculation of area of cerebral infarction: The photos were processed by Image J software, and the corresponding area of left brain and non-infarction area of right brain were calculated according to the formula, so that the percentage of the area of infarction was calculated. The experimental animals were divided into 4 groups, a model group and three groups of compositions of cilostazol/(+)-2-borneol (respectively a group of cilostazol 10 mg/kg+(+)-2-borneol 10 mg/kg in 1:1: a group of cilostazol 15 mg/kg+(+)-2-borneol 5 mg/kg in 3:1; a group of cilostazol 18 mg/kg+(+)-2-borneol 2 mg/kg in 9:1, and each composition was administered at a total amount of 20 mg/kg). After the cerebral ischemia model was established, the animals were assigned to each group in a single-blind manner with equal probability. After reperfusion, the animals were immediately administered intravenously with the drugs once. The animals in the model group were administered with an equal volume of normal saline. The animals were sacrificed 24 hours after cerebral ischemia, and their brains were taken out, stained, and photographed for determining the area of cerebral infarction. Establishment of focal cerebral ischemia-reperfusion model: The mouse focal cerebral ischemia-reperfusion model was established by internal carotid artery suture method. An anesthetized mouse was fixed on an operating table in a supine position. The neck of the mice was cut at the midline, and the subcutaneous tissue was bluntly separated. The right common carotid artery, external carotid artery, and internal carotid artery were separated. […]
# [3] = system: plasma protein; conditions: background statement; cited from earlier work
# [4] = Example 1, cilostazol 1 mg/kg (p=0.06), (+)-2-borneol 1 mg/kg (p<0.01), composition 1+1 mg/kg (p<0.001), vs model group
# [5] = Example 1, cilostazol 1 mg/kg, composition 2 mg/kg (1+1), model group 39.73 ± 7.62
# [6] = Example 2, cilostazol 9 mg/kg (p=0.024), (+)-2-borneol 1 mg/kg (p=0.017), composition 9+1 mg/kg (p=0.000)
# [7] = Example 2, cilostazol 9 mg/kg, composition 10 mg/kg (9+1), model group 38.25 ± 7.87
# [8] = Example 3, cilostazol 18 mg/kg (p=0.001), (+)-2-borneol 1 mg/kg (p=0.002), composition 18+1 mg/kg (p=0.000)
# [9] = Example 3, cilostazol 18 mg/kg, composition 19 mg/kg (18+1), model group 40.32 ± 7.65
Compound,"effect on the area of cerebral infarction (in words) [1, 4]","Area of cerebral infarction (%) [1, 5] [%]","effect on the area of cerebral infarction (in words) [1, 6]","Area of cerebral infarction (%) [1, 7] [%]","effect on the area of cerebral infarction (in words) [1, 8]","Area of cerebral infarction (%) [1, 9] [%]",area of cerebral infarction of MCAO rats (in words) [1],neurological deficits of MCAO rats (in words) [1],area of cerebral infarction in MCAO mice (in words) [2],neurological deficits in MCAO mice (in words) [2],binding rate to plasma protein [3]
"CC1(C)C2CCC1(C)C(O)C2 (single isomer, unassigned; (+)) [(+)-2-Borneol]",significantly reduce the area of cerebral infarction,28.28 ± 8.06,significantly reduce the area of cerebral infarction,28.62 ± 9.87,significantly reduce the area of cerebral infarction,29.97 ± 7.02,reduce the area of cerebral infarction,significantly ameliorate the neurological deficits,reduce the area of cerebral infarction,significantly ameliorate the neurological deficits,
O=C1CCc2cc(OCCCCc3nnnn3C3CCCCC3)ccc2N1 [Cilostazol],"tended to alleviate cerebral ischemic injury, but showed no statistical difference",33.78 ± 5.74,significantly reduce the area of cerebral infarction,30.00 ± 8.43,significantly reduce the area of cerebral infarction,27.84 ± 7.50,reduce the area of cerebral infarction,significantly ameliorate the neurological deficits,reduce the area of cerebral infarction,significantly ameliorate the neurological deficits,about 95%
